For orientation: ED50 means the dose that gives a 50% effect, or the effect in half of the subjects. In general, melting point refers to the temperature of the solid-liquid transition. Usually logP stands for a log measure of how a compound divides between an organic and an aqueous phase. A low value points to a more hydrophilic compound.

In one series the test system is Lower lip retraction. In words: Lower lip retraction. It counts as in vivo. Conditions: po, read-out: Lower Lip Retraction: ED50. The method, then:
(§1) For oral (p.o.) administration: to the desired quantity (0.5-5 mg) of the solid test compound in a glass tube, some glass beads were added and the solid was milled by vortexing for 2 minutes. After addition of 1 ml of a solution of 1% methylcellulose in water and 2% (v/v) of Poloxamer 188 (Lutrol F68), the compound was suspended by vortexing for 10 minutes. The pH was adjusted to 7. Remaining particles in the suspension were further suspended by using an ultrasonic bath.
(§2) Lower lip retraction, an in vivo animal model for serotonin 5-HT1A receptor agonistic activity, was measured according to the method described by Berendsen (1989); Apomorphine-induced climbing behaviour in mice, an in vivo animal model for dopamine-D2 receptor antagonistic activity, was determined according to the method described by Costall (1978).

Series [1] can be described thus: Brain concentrations in mice after i.v. or p.o. administration, LC-MS. The settings on record: for concentration at 0.17 h / concentration at 0.5 h / concentration at 1 h / concentration at 3 h / concentration at 7 h / concentration at 24 h: mouse, brain, read-out: piperazine-N-ox analyzed in brain. The class given is in vivo. The method, then: (§3) The LC-MS system consists of 2 Perkin elmer series 200 micro pumps. The pumps were connected to each other by a 50 pI tee mixer, and connected to a Gilson 215 auto sampler. The method was as follows:
(§4) The auto sampler was connected to a Waters Atlantis C18 30*4.6 mm column with 3 μm particles. The column was thermo stated in a Perkin Elmer series 200 column oven at 40° C. The column was connected to a Perkin Elmer series 200 UV meter with a 2.7 μl flowcel. The wavelength was set to 254 nm. The UV meter was connected to a Sciex API 150EX mass spectrometer. The mass spectrometer had the following parameters: Scanrange:150-900 a.m.u., polarity: positive; scan mode: profile; resolution Q1: UNIT; step size: 0.10 a.m.u.; time per scan: 0.500 sec; NEB: 10; CUR: 10; IS: 5200; TEM: 325; DF: 30; FP: 225 and EP: 10. The light scattering detector was connected to the Sciex API 150. The light scattering detector was a Sedere Sedex 55 operating at 50° C. and 3 bar N2. The complete system was controlled by a G3 powermac.
as §1
For intravenous (i.v.) administration: compounds were dissolved in physiological saline (0.9% NaCl) and the pH was adjusted to 7.
Data were averaged (n=3), and collected in table 4.

Series [2] concerns Apomorphine-induced climbing behaviour in mice. In words: Antagonism of apomorphine-induced climbing behaviour in mice. The settings on record: Mus musculus, po, read-out: Antagon. apomorphine ind. climbing: ED50. It counts as in vivo. As for the experimental part:
as §1, §2

Series [3] is described as follows: Pharmacological profile in vivo (overall statement). As for the experimental part:
as §2

Series [4] in a line: Plasma concentrations in mice after i.v. or p.o. administration, blood analyzed by LC-MS. The class given is in vivo. Conditions: piperazine-N-oxide administered. As for the experimental part: as §3, §4
For oral (p.o.) administration: to the desired quantity (0.5-5 mg) of the solid test compound in a glass tube, some glass beads were added and the solid was milled by vortexing for 2 minutes. After addition of 1 ml of a solution of 1% methylcellulose in water and 2% (v/v) of Poloxamer 188 (Lutrol F68), the compound was suspended by vortexing for 10 minutes. The pH was adjusted to 7. […]

A further series has as its target Dopamine-D2 (Homo sapiens, UniProt P14416). Put plainly: In vitro receptor affinity, Dopamine-D2. The class given is binding. The settings on record: radioligand [3H]-spiperone, read-out: K1 (in vitro receptor affinity). As for the experimental part:
(§5) ln vitro affinity for neurotransmitter receptors: The binding data collected below were either obtained by CE REP (128, rue Danton, 92500 Rueil-Malmaison, France) or at Solvay Pharmaceuticals B.V. (C. J. van Houtenlaan 36, 1381 CP Weesp, The Netherlands), using well documented standard procedures. The affinities for dopamine-D2 and 5-HT1A receptors for instance, were measured as described by Creese (1997) and Gozlan (1983) respectively.

Series [5] concerns neurotransmitter receptors. Put plainly: Pharmacological profile in vitro (overall statement). The method, then: as §5
In vitro (ant)agonistic activity at human D2 receptors and 5-HT1A receptors was measured according to the methods described by Solomon (1974) and Weiss (1985) respectively, on the formation of adenylate cyclase in CHO cell-lines expressing these cloned receptors.

The nature of series [6]: Partition coefficient, experimental (Log P). It counts as physicochemical. Conditions: at pH 7.0.
A further series has as its target T1, Serotonin-5-HT1A (Homo sapiens, UniProt P08908).
T1 sequence (P08908 1-422): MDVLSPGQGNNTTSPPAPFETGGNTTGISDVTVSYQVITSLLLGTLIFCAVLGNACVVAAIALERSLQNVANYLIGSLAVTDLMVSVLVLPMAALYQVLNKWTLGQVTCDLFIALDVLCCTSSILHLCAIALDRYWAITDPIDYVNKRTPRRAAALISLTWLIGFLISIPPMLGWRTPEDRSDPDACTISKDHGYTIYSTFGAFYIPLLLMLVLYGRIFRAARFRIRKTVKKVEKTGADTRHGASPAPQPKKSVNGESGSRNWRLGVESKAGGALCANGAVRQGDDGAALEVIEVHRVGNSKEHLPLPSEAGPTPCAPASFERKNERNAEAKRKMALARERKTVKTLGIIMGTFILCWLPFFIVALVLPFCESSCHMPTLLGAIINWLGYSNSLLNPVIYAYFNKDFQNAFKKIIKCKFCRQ
Put plainly: In vitro receptor affinity, Serotonin-5-HT1A. It counts as binding. Conditions: radioligand [3H]-8-OH-DPAT, read-out: K1 (in vitro receptor affinity). The method, then: as §5

Where [7] appears, read: iv, 0.5 mg/kg i.v. of administered compound.
The mark [8] stands for this setting: po, 5 mg/kg p.o. of administered compound.

“Also recorded” adds a separate entry of the source. Read-outs that look alike come from different tables or passages of the source.

Chain of Dopamine-D2 (P14416 whole entry): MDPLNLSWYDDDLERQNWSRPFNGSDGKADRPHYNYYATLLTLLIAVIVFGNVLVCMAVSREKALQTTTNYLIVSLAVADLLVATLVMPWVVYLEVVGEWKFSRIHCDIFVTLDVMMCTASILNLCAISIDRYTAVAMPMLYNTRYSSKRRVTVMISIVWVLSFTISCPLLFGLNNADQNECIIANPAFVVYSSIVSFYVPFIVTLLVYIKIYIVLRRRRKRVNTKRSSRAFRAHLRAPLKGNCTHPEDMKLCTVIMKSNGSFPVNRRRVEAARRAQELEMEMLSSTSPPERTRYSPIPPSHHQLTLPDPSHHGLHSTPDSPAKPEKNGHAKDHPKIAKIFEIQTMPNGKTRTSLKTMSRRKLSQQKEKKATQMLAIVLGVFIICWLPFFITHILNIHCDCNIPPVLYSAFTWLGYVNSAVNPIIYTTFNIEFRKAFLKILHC

Consider `[O-][N+]1(Cc2cncc(-c3ccc(F)cc3)c2)CCN(c2cccc3c2OCCO3)CC1` [piperazine N-oxide], for which the melting point lay within 181 to 182 °C. Also, the ED50 in the series on Lower lip retraction was 10 mg/kg. For the same compound, in series [1] (i.v. or p.o.), the “detection of administered compound in brain” value was “hardly detected in brain”. For the same compound, in [1] (setting [7]), the concentration at 0.17 h was found to be 3.1 ng/g, the concentration at 0.5 h amounted to 4.4 ng/g, the concentration at 1 h was determined as 0 ng/g and the concentration at 3 h is 0 ng/g. In series [1] (setting [7]), the concentration at 7 h stood at 0 ng/g and the concentration at 24 h worked out at 0 ng/g. For the same compound, in series [1] (setting [8]), the concentration at 0.17 h came to 2.9 ng/g, the concentration at 0.5 h is 2.6 ng/g, the concentration at 1 h was found to be 0 ng/g and the concentration at 3 h was 0 ng/g. In series [1] (setting [8]), the concentration at 7 h amounted to 0 ng/g and the concentration at 24 h was 0 ng/g. In addition, the ED50 in [2] was 0.3 mg/kg. Also, in series [3] (in vivo), the “pharmacological profile/potency in vivo relative to SLV313” value is reported as “equipotent”. Also, in [4], the “time at which plasma concentrations of piperazine-N-oxide and parent molecule cross” value is on record as “within half an hour”. For the same compound, on Dopamine-D2, the Ki was more than 1000 nM. Besides, the “pharmacological profile/activity in vitro relative to parent SLV313” value in series [5] is “virtually inactive; also recorded: nearly inactive”. Further, the lipophilicity (logP) in series [6] is 1.7. For the same compound, the Ki at Serotonin-5-HT1A was found to be 25 nM.

As to `[O-][n+]1cc(C[N+]2([O-])CCN(c3cccc4c3OCCO4)CC2)cc(-c2ccc(F)cc2)c1` [SLV313-bis-N-oxide, 4-(2,3-dihydro-benzo[1,4]dioxin-5-yl-1-[5-4-fluorophenyl]-1-oxy-pyridin-3-ylmethyl)piperazine-1-oxide], the “potency relative to corresponding parent molecule, the pyridine N-oxide” value in [3] (stated by analogy) is reported as “equipotent”.
